In a melting point compilation (Tetko et al.; mined from patent text by program, amines drawn as free bases though some values may be those of a salt):

melting point [°C] | SMILES
211 to 212 | CNCCc1ccc(CCC(=O)O)cc1
> 300 | CN(C)CC(=O)Nc1ccc2[nH]c(=O)c3ccccc3c2c1
125 to 127 | CCOC(=O)c1ccccc1-n1c(C)nc2cnccc21
238 | Cn1nc(-c2cnc(N)nc2-c2ccc(Cl)c(Cl)c2)ccc1=O
153 to 154 | COC(=O)c1nc(-c2ccc(Cl)cc2)n(-c2ccc(Cl)cc2Cl)n1
90 to 92 | CC(C)(C)OC(=O)CN1CC(c2ccco2)SCC(N)C1=O (stereo not given)
119 to 120 | CC(=O)NC(=O)c1cccc(-c2noc(-c3ccccc3F)n2)c1
135 to 137 | CCOC(=O)CN(c1cccc2cc(-c3nccs3)[nH]c12)S(=O)(=O)c1cccs1
193 to 195 | O=C1C(c2cc3c(cc2O)OCCCO3)c2ccccc2N1C(c1ccccc1)c1ccccc1 (stereo not given)
91 to 93 | CCCCCCCCCCCCCCOc1ccc(C(=O)NCc2ccccn2)cc1
63 to 64.5 | CCOC(=O)c1c(N=[N+]=[N-])cc(C(F)(F)F)nc1C(F)(F)F
90 to 92 | COC(C)COC1C(n2cc(C)c(=O)[nH]c2=O)OC(COCc2ccccc2)(COS(=O)(=O)c2ccc(C)cc2)C1(CCO)OCc1ccccc1 (stereo not given)
116 | O=C(CSC(=S)N1Cc2[nH]c3ccccc3c2CC1C(=O)O)c1ccccc1 (stereo not given)
120 to 122 | CCS(=O)(=O)Nc1ccc(C(O)CNCC2CCc3ccccc3C2=O)cc1 (stereo not given)
175 | CCCCOc1ccc(C(=O)c2cccc(C(=O)O)c2)c(O)c1
50 to 55 | CC#CCOc1ccc(S(=O)(=O)N(C)C(C(=O)NO)c2ccc(OCCCNC(=O)OCCCC)cc2)cc1 (stereo not given)
119 to 120 | CS(=O)(=O)c1ccc(-c2cc(CO[N+](=O)[O-])nn2C2CCCCCC2)cc1
130 to 132 | CC(=O)N1CCc2cc(CCN3CCC(c4noc5cc(F)ccc45)CC3)sc2C1
165 to 167 | NC(=O)c1ccn(-c2ccc(Oc3ccccc3)cc2)n1
75 to 76.5 | CC(C)(C)c1ccc(-c2nc(Cl)c3ccccc3n2)cc1
48 to 49 | O=C1C(=C(O)C(F)(F)F)CCc2ccccc21
51 to 54 | C1CNCCSCCNCCN1
259 to 260 | COC1=NC2OC(C(O)c3ccc(Cl)cc3Cl)=C(N)C2C=C1 (stereo not given)
75 to 91 | COc1cc2c(cc1Nc1ncc(Cl)c(Nc3ccccc3S(=O)(=O)N(C)C)n1)CCN(CCN1CCOCC1)C(=O)C2

melting point [°C] | SMILES
113 to 116 | Cc1c(NC(=O)C(CSC(=O)c2ccco2)Cc2ccccc2)cccc1C(=O)O (stereo not given)
45.5 to 49 | COc1ccc(C(C#N)C(C)C)cc1OC (stereo not given)
74 to 76 | Cc1ccc(SCc2ccc(OC(F)(F)F)cc2)cc1
125 to 129 | CCc1nc2c(C)cc(C)nc2n1Cc1ccc(C(=C(Br)C(=O)O)c2ccccc2)cc1
134 to 135 | Cc1ccc(Nc2ncccc2O)cc1
267 to 268 | CCOC(=O)c1cc(O)c2cc3c(O)cc(C(=O)OCC)nc3c(N(CC)CC)c2n1
237 to 238 | Cc1c(Cl)ccc(-n2c(-c3ccccc3)cc(=O)c(C)c2-c2ccccc2)c1Cl
189 to 190 | Cc1ccc(-c2ccc3c(c2)C=C(C(=O)Nc2ccc(Cc4ccccn4)cc2)CCO3)cc1
120 to 121 | CCCOc1c(I)cc(C(=O)CCC(=O)c2cc(OC)c(OC)c(OC)c2)cc1OC
178 to 180 | CNC(=O)CC1CN=C(c2cc3cc(Oc4ccc(S(C)(=O)=O)nc4)ccc3[nH]2)S1 (stereo not given)
206 to 207 | Cc1ccccc1C(=O)Nc1ccc(C(=O)N2Cc3cccn3-c3ccccc32)cc1
200 | COc1ccc(Oc2ccc3ccc(N)nc3n2)cc1
125 to 126 | CCC(O)(c1ccc(O)cc1)c1ccc(F)cc1 (stereo not given)
208 to 210 | CC1(C)Oc2ccncc2C2OC21 (stereo not given)
168 to 170 | O=C(Nc1c(F)cccc1F)c1ccc(-n2nc(C(F)(F)F)cc2C2CC2)c(F)c1
122 to 126 | O=Cc1cccc(OCC(O)CN2C(=O)c3ccccc3C2=O)c1 (stereo not given)
133 | COC(=O)[C@H](C)NC(=O)c1cccc([N+](=O)[O-])c1N
110 to 112 | O=c1c(Cc2ccccc2)c2n(c(=O)n1Cc1ccccc1)CCCS2
258 to 260 | O=C(Nc1cc(Cl)cc(Cl)c1)c1cc(F)ccc1O
95.9 to 96.7 | COC(=O)c1cc(-c2ccc(F)c(C)c2)nn(CC=Cc2ccccc2)c1=O
200 | COc1cc2c(-c3cc4c(Cl)ccnc4[nH]3)cn(CCN3CCC(CCO)CC3)c2cc1OC
98 | COc1ccc2c(c1)C(O)(c1ccccn1)CC(C)(C)CO2 (stereo not given)
66 | Cc1ccc(S(=O)(=O)N2CCCC2c2ccc(N(C)C)c(F)c2)cc1 (racemic)
67 to 68 | C[Si](C)(C)C(N)Cc1ccccc1 (stereo not given)

melting point [°C] | SMILES
113 to 117 | CC1(C)CC(N2CCCCCC2=O)CC(C)(C)N1
186 to 188 | COc1cc2c(c(C(C)C)c1OC)C(=O)NS2(=O)=O
138 | O=C1C=CC(OC(=O)c2ccc([N+](=O)[O-])cc2)(c2nc3ccccc3s2)C=C1
213 to 215 | O=C1Cn2ncnc2-c2sccc2N1
157 | COc1c(C2CCN(CCCCNC(=O)c3oc(-c4ccc(C#N)cc4)nc3C)CC2)ccc2c1CCCC2
215 to 218 | Fc1ccc2[nH]c3c(c2c1)CN(CCCc1cccnc1)CC3
49.5 to 58 | CCOC(=O)N1CC[C@@H](O)[C@H](c2ccccc2)C1 (relative stereo)
40 to 46 | CCC(C)Nc1c([N+](=O)[O-])cc(C)c(Cl)c1[N+](=O)[O-] (stereo not given)
50 to 51 | C=CC(O)C(NC=O)C(=O)OCC (stereo not given)
187 to 190 | O=C(O)COc1ccc(C2=CC(=O)CC(c3ccccc3F)C2)c(Cl)c1Cl (stereo not given)
116 | CC12CCC(C(=Cc3ccc(C=O)cc3)C1=O)C2(C)C (stereo not given)
114 to 115 | N[C@@H](Cc1ccc(C(F)(F)F)cc1)[C@H](O)c1ccc(Oc2ccccc2)cc1 (racemic)
80 to 82 | C#C[C@@](C)(O)CCC1=C(C)C(=O)C(C)=C(C)C1=O
78 to 81 | CCN(CC)C(=O)n1ccc(S(=O)(=O)c2cccc(F)c2F)n1
50 to 51 | C[Si](C)(C)c1ccc(NC(=O)CCCC=C(F)F)cc1
47 to 50 | COc1ccccc1P(CC(CCCCCCO)CP(c1ccccc1OC)c1ccccc1OC)c1ccccc1OC
100 to 104 | COC(=O)CC1(CC(=O)N2CCN(C(=O)CC3=C(C(=O)OC)[C@H](c4c(Cl)cccc4Cl)C(C(=O)OC)=C(C[S@](=O)c4ccccc4)N3)CC2)CCCC1
99.7 to 100 | CCOC(=O)C(C)n1ncc2ccc([N+](=O)[O-])cc21 (stereo not given)
156 to 157 | CSC[C@H](NC(C)=O)C(=O)N(C)N
163 to 164 | Cc1ccc(S(=O)(=O)N2Cc3c(C)sc(C)c3C2)cc1
> 250 | O=C1CCCC2=C1C(c1ccc(F)c(C(F)(F)F)c1)C1=C(CCS1)N2 (single isomer, unassigned; (+))
100 to 101 | CC(C)(CCCCC=CCCCCC(C)(C)CC(=O)O)CC(=O)O
230 to 232 | CS(=O)c1cc(=O)c2occc2s1 (stereo not given)
167 to 168 | O=C(O)CN1CC(=O)N(Cc2ccc(Cl)c([N+](=O)[O-])c2)C1=O

melting point [°C] | SMILES
167 to 168 | COC(=O)C1=C(CF)NC(C)=C(C(=O)OC2CCCC2)C1c1cccc([N+](=O)[O-])c1C (stereo not given)
106 to 109 | CCC(=O)NCCC1=CCc2cc(Br)c(OC)cc21
> 200 | O=C(O)c1ccc(-c2cnc3c(c2)N(Cc2c(Cl)cccc2Cl)C(=O)CN3)cc1
314 to 317 | NC(=O)c1cnn(-c2ccc(Cl)nn2)c1N
54.5 to 55.4 | O=[N+]([O-])c1c(C2C=CCCC2)ccnc1Cl (stereo not given)
174 to 176 | COc1cccc2c(=O)c(C=O)coc12
104 to 106 | CCCc1nn(-c2ccc(C(F)(F)F)cn2)cc1CCCOc1ccc(OC)c(CCC(=O)O)c1
129 to 131 | COc1cc(C(=O)c2ccccc2Cl)cc([N+](=O)[O-])c1O
148 to 149 | COc1nc(Oc2ccccc2C(=O)O)nc(N(C)C)n1
127 to 131 | CCOCc1nc2c(N)nc(C)c(C)c2n1NC1CCN(S(C)(=O)=O)CC1
111 to 112 | COC(=O)CCC#Cc1cc(F)cc([N+](=O)[O-])c1
153 to 154 | COC1(c2cc(F)cc(Sc3ccc(C(=NO)c4nccs4)cc3)c2)CCOCC1
158 to 160 | N#CC1=C(c2ccc(Cl)cc2)NC(C(F)(F)F)C1 (stereo not given)
268 to 269 | O=C(O)c1cccc2nc3cc(Br)ccc3nc12
234 to 240 | N#Cc1ccc(-c2ccn(-c3ccc(C#N)cc3)c2)cc1
136 to 145 | Cc1ccnc(NC(c2ccc([N+](=O)[O-])cc2)c2ccc3cccnc3c2O)n1 (stereo not given)
247 to 250 | COC(=O)c1cn2c3c(c(OS(C)(=O)=O)c(F)cc3c1=O)CCN2C
> 300 | Cc1nc(O)c([N+](=O)[O-])c(O)n1
50 to 52 | CC(=O)Cc1ccc(Oc2ccc(Cl)cc2)cc1
142 | COn1c(-c2ccccc2)nc2ccc(Cn3ccnc3)cc21
55.4 | CC(C)(C)C1CC(=O)CC(C(C)(C)C)N1 (stereo not given)

SMILES | melting point [°C]
Cc1nnc2n1-c1sc(C(C)OC(=O)C(C)(C)C)cc1C(c1ccccc1Cl)=NC2 (stereo not given) | 148 to 151
CCNC(=O)N1N=C(c2ccc(N)cc2)c2cc(Cl)ccc2CC1C (stereo not given) | 165 to 167
O=C1NC(=O)C(Cc2cc(O)c(O)c([N+](=O)[O-])c2)C(=O)N1 | 263 to 266
O=C(OCC1CCC1)c1ncn2c1[C@@H]1CCCN1C(=O)c1c(Cl)cccc1-2 | 204 to 205
COc1cc2c(cc1OC)CN(Cc1ccc(OC(=O)N(C)C)c(OC)c1)CC2 | 126 to 128
COC(=O)c1ccc(-c2ccc(-c3ccc4c(c3)C(C)(C)CCC4(C)C)[nH]2)cc1 | 176 to 179
CC(C)(O)C1CCN(c2ccc(C#N)c3ccccc23)CC1 | 133 to 134
